Experimental data reported in US20200399632A1, “SENSOR SYSTEMS” (enEvolv, Inc., priority 2018, published 2020).

Assays:
[1] = Diffusion between droplets: naringenin droplets co-incubated with sensor cell droplets; type: physicochemical; settings: droplets with 500 μM naringenin mixed with sensor cell droplets; 1% Ran Fluorosurfactant in HFE7500; FIG. 6
Method: FIG. 6 is an image showing fluorescence of two sets of droplet co-incubated for 24 hours. The first set of droplets contained 500 μM naringenin and the second set of droplets contained naringenin sensor cells. If diffusion was occurring between the droplets, the sensor cells would become fluorescent over the 24 hour period.
2E6 pNARnull, 2E6 pNAR^low, 2E6 pNARhigh, were co-cultured with the E. coli BW25113 Δptsl::kanR pSENSORGFP-PtsI sensor strain described in Example 3. The four cultures were grown overnight in LB medium, subdiluted 1 to 100 in minimal medium supplemented with the appropriate antibiotic and then grown into log phase. Once in log phase, the E. coli were rinsed 3× with 1× filtered M9 salts and then diluted to an OD600 of 1.0. The 2E6 strains were diluted to an OD600 of 0.01 to ensure that a single producer strain is present in each encapsulated droplet and the sensor cells were diluted to 0.1 to ensure that each droplet gets at least 5 sensor cells. Six sets of droplets were produced, (1) sensor cell only, (2) sensor cell with 500 μM naringenin, (3) 2E6 pNARhigh with sensor cell and 1 mM IPTG, (4) 2E6 pNARnull with sensor cell and 1 mM IPTG, (5), 2E6 pNARlow with sensor cell and 1 mM IPTG, and (6) naringenin only droplets. […] Double emulsions were analyzed under the microscope prior to FACS analysis. […]

TtgR = TtgR sensor GFP response of MAGE-engineered E. coli MG1655 mutants to exogenously applied naringenin; type: cell-based; settings: naringenin 0, 31, 63 or 125 μM; three MAGE-engineered E. coli MG1655 clones, medium-copy plasmid with TtgR and gfp
Description: The three clones were transformed with a medium-copy plasmid harboring TtgR and gfp under the control of an engineered ttgAp promoter. […] No naringenin pathway enzymes were present during these experiments, eliminating any interference by endogenously produced naringenin. The variation was not resolved upon transferring the sensor system to the genome (not shown) or switching to a high-copy sensor plasmid (FIG. 2A).

[2] = system: E. coli BW25113 Δptsl::kanR pSENSORGFP-PtsI sensor strain; experiment: GFP fluorescence of sensor cells encapsulated in droplets with naringenin (microscope); type: cell-based; settings: 500 μM naringenin with sensor cells; 33° C., 48 hours; FIG. 5d
Description: FIGS. 4A-B establish co-culturing of producer cells and sensor cells as a viable strategy for screening. Sensor cells were engineered in an E. coli BW25113 Δptsl::kanR background, which is unable to grow on glucose as a sole carbon source. The glucose transporter ptsl and fluorescence reporter gfp were expressed co-cistronically under the control of a TtgR-regulated promoter on the plasmid pSENSORGFP-PtsI, such that growth and the magnitude of GFP signal are naringenin-dependent. […] Following incubation, the water-in-oil droplets were encapsulated in another aqueous phase, generating water-in-oil-in-water droplets, which were observed on a standard fluorescence activated cell sorter (FACS). […]
2E6 pNARnull, 2E6 pNAR^low, 2E6 pNARhigh, were co-cultured with the E. coli BW25113 Δptsl::kanR pSENSORGFP-PtsI sensor strain described in Example 3. […] Double emulsions were analyzed under the microscope prior to FACS analysis. […]

O=C1C[C@@H](c2ccc(O)cc2)Oc2cc(O)cc(O)c21 [naringenin]
diffusion between droplets [1]: no diffusion between droplets
GFP expression induced in TtgR sensor strains (TtgR): induced different levels of GFP expression
fluorescence of positive control droplets [2]: very fluorescent
